# Results: patent publication US12398104B2, “Odorless thiols for permanent waving, straightening and depilatory applications” (The Procter & Gamble Company, priority 2017, dated 2025)
# Experiment: Mannequin head curl retention expert evaluation (air dried hair)
# Settings: through 20 washes
# Description: Mannequin Head Odor and Curl Expert Evaluation
# Control perm: Omniperm™ with ammonium thioglycolate, available from Zotos Professional®, including both the reducing and oxidizing steps.
# Curl Retention Assessments:
# Treatment and expert sensory performed by licensed cosmetologist with 20+ years expertise in perms. All evaluations shown in graphs were done with hair in dry state, after air drying. Photos are available for most time points as well.
smiles,measurement,value
C[n+]1cccc(NCCS)c1.[I-] [3-((2-mercaptoethyl)amino)-1-methylpyridin-1-ium iodide],Curl retention compared with benchmark control perm,equal curl retention
